Here are results for 20 compounds from patent US10865216B2, “Tricyclic Gyrase inhibitors” (MERCK SHARP & DOHME CORP., priority 2012, dated 2020).

By MIC is commonly meant the lowest concentration that inhibits growth of the organism.

What all share (type): cell-based
One test has as its system S. aureus ATCC 13709. Briefly: MIC, S. aureus ATCC 13709. The conditions noted are these: for MIC: Staphylococcus aureus; for SA MIC: Table 17, comparative, new species of R2.
A further test deals with S. pneumoniae ATCC 51916. Briefly: MIC, S. pneumoniae ATCC 51916. As to conditions: for MIC: Streptococcus pneumoniae, ATCC51916, Table 10, Spn = S. pneumoniae; for Spn52 MIC: Table 17, comparative, Spn52 not defined.
A further test has as its system E. coli ATCC 25922. Briefly: MIC, E. coli ATCC 25922. The conditions noted are these: for MIC: Escherichia coli.
The subject of another test is P. aeruginosa ATCC 15692. Briefly: MIC, P. aeruginosa ATCC 15692. As to conditions: for MIC: Pseudomonas aeruginosa, ATCC15692, Table 10, Pa = P. aeruginosa; for PA MIC: Table 17, comparative, new species of R2.
For a further test, the system named is A. baumannii ATCC 19606. The test can be described thus: MIC, A. baumannii ATCC 19606. The conditions noted are these: Acinetobacter baumannii, ATCC19606; Table 10; Ab = A. baumannii, strain not stated.
The subject of test [1] is K. pneumoniae ATCC 700603. The test can be described thus: MIC, K. pneumoniae ATCC 700603. As to conditions: Klebsiella pneumoniae, ATCC700603; Table 10; Kpn = K. pneumoniae.
The mark [2] stands for this setting: ATCC13709, S. aureus, Alamar Blue read after overnight incubation at 35° C., read-out: MIC Sa.
Where [3] appears, read: ATCC13709, Table 10, Sa = S. aureus, read-out: Sa MIC.
Setting [4] is: ATCC25922, E. coli, Alamar Blue read after overnight incubation at 35° C., read-out: MIC Ec.
Setting [5] is: ATCC25922, Table 10, Ec = E. coli, strain not stated, read-out: Ec MIC.
Setting [6] is: S. aureus, Alamar Blue read after overnight incubation at 35° C.
[7] abbreviates: E. coli, Alamar Blue read after overnight incubation at 35° C.

Values after ≈ are worked out from the molar mass of the structure shown. Where two headings read alike, the source gives them in different places.

For the compound `CNc1cc(F)c(C)c2c1[nH]c1nc(Oc3cnc(C)nc3)nc(N3C[C@H](N)C4(CC4)C3)c12` [Compound 6.290], the MIC is not above 0.5 µg/mL in the test with S. aureus ATCC 13709 (setting [2]); not above 0.5 µg/mL in the test with S. aureus ATCC 13709 (setting [3]); not above 0.5 µg/mL with S. pneumoniae ATCC 51916; not above 0.5 µg/mL with E. coli ATCC 25922 (setting [4]); not above 0.5 µg/mL in the test with E. coli ATCC 25922 (setting [5]); 2 µg/mL (≈ 4.46 µM) against P. aeruginosa ATCC 15692. Moreover, the values for the minimal inhibitory concentration (MIC) (against A. baumannii ATCC 19606; in test [1]) were not above 0.5 µg/mL and 2 µg/mL (≈ 4.46 µM), respectively.
As for `CNc1cc(F)cc2c1[nH]c1nc(Oc3cnc4c(C)cnn4c3)nc(N3C[C@H]4C[C@@H]3C[C@H]4N)c12` [drawing 1831], in the test with S. aureus ATCC 13709, the SA MIC was not above 0.016 µg/mL. The Spn52 MIC with S. pneumoniae ATCC 51916 was not above 0.001 µg/mL. In addition, in the test with P. aeruginosa ATCC 15692, the PA MIC is 0.5 µg/mL.
For the compound `CNc1cc(F)c(C)c2c1[nH]c1nc(Oc3cnc(C)nc3)nc(N3CC4C[C@@H]3C[C@H]4N)c12` [Compound 6.280], the minimum inhibitory concentration (MIC) is not above 0.5 µg/mL in the test with S. aureus ATCC 13709 (setting [2]); not above 0.5 µg/mL in the test with S. aureus ATCC 13709 (setting [3]); not above 0.5 µg/mL against S. pneumoniae ATCC 51916; not above 0.5 µg/mL with E. coli ATCC 25922 (setting [4]); not above 0.5 µg/mL in the test on E. coli ATCC 25922 (setting [5]); 1 µg/mL (≈ 2.23 µM) with P. aeruginosa ATCC 15692. Also, the MIC is not above 0.5 µg/mL with A. baumannii ATCC 19606 and 2 µg/mL (≈ 4.46 µM) in test [1].
In the case of `CNc1cc(F)cc2c1[nH]c1nc(Oc3cnc(C)nc3)nc(C3C[C@H]4CCN[C@H]4C3)c12` (some centres unmarked), in the test with S. aureus ATCC 13709, the SA MIC is less than 0.03 µg/mL. The compound also registered a Spn52 MIC in the test with S. pneumoniae ATCC 51916 of less than 0.03 µg/mL. Besides, the PA MIC in the test on P. aeruginosa ATCC 15692 was 2 µg/mL.
On to `CNc1cc(F)cc2c1[nH]c1nc(Oc3cnc(C)nc3)nc(N3C[C@H]4C[C@@H]3C[C@H]4N)c12`, for which, in the test on S. aureus ATCC 13709, the SA MIC was not above 0.016 µg/mL. This compound returned a Spn52 MIC in the test with S. pneumoniae ATCC 51916 not above 0.016 µg/mL. In the test on P. aeruginosa ATCC 15692, this compound showed a PA MIC of 1 µg/mL.
For `CNc1cc(F)cc2c1[nH]c1nc(Oc3cnc4ccnn4c3)nc(N3C[C@H]4C[C@@H]3C[C@H]4N)c12`, the SA MIC in the test on S. aureus ATCC 13709 was not above 0.016 µg/mL. The compound also yielded a Spn52 MIC with S. pneumoniae ATCC 51916 not above 0.001 µg/mL. In the test with P. aeruginosa ATCC 15692, this compound came in with a PA MIC of 0.5 µg/mL.
As to `CNc1cc(F)cc2c1[nH]c1nc(Oc3cncc(C#N)c3)nc(N3CC4CC(N)C4C3)c12` (centres unmarked) [Compound 4.053], in the test on S. aureus ATCC 13709 (setting [6]), the “MIC Sa” value is not above 0.5 µg/mL. For the same compound, the “MIC Ec” value against E. coli ATCC 25922 (setting [7]) was not above 0.5 µg/mL.
Take `CNc1cc(F)cc2c1[nH]c1nc(Oc3cnc(N4CCOCC4)nc3)nc(N3CC[C@@H](N)C3)c12` [Compound 4.212]: the “MIC Sa” value in the test with S. aureus ATCC 13709 (setting [6]) is not above 0.5 µg/mL. Moreover, in the test with E. coli ATCC 25922 (setting [7]), the “MIC Ec” value is not above 0.5 µg/mL.
As for `CNc1cc(F)cc2c1[nH]c1nc(Oc3cnc(N)nc3)nc(N3CC(N)C4(CC4)C3)c12` (centres unmarked) [Compound 4.177], in the test with S. aureus ATCC 13709 (setting [6]), the “MIC Sa” value is not above 0.5 µg/mL. The “MIC Ec” value in the test on E. coli ATCC 25922 (setting [7]) was not above 0.5 µg/mL.
For the compound `CNc1ncc(Oc2nc(N3CC4CC(N)C4C3)c3c(n2)[nH]c2c(NC)cc(F)cc23)cn1` (centres unmarked) [Compound 4.221], in the test on S. aureus ATCC 13709 (setting [6]), the “MIC Sa” value was not above 0.5 µg/mL. Also, the “MIC Ec” value against E. coli ATCC 25922 (setting [7]) worked out at 2 µg/mL (≈ 4.45 µM).
`CNc1cc(F)cc2c1[nH]c1nc(Oc3cnc(C)nc3)nc(N3CC4CCC4(N)C3)c12` (centres unmarked) [Compound 10.65] showed an MIC Sa in the test with S. aureus ATCC 13709 (Table 18, Sa) not above 0.5 µg/mL. Besides, the MIC Ec with E. coli ATCC 25922 (Table 18, Ec) was not above 0.5 µg/mL.
Regarding `CNc1cc(C)cc2c1[nH]c1nc(Oc3cncnc3)nc(N3CC4C(N)C4C3)c12` (centres unmarked) [Compound 6.27], the “MIC Sa” value against S. aureus ATCC 13709 (setting [6]) is not above 0.5 µg/mL. Besides, the “MIC Ec” value in the test on E. coli ATCC 25922 (setting [7]) amounted to 1 µg/mL (≈ 2.48 µM).
For `CNc1cc(F)cc2c1[nH]c1nc(Oc3cnc(C(C)O)c(Cl)c3)nc(N3CC4CCNC4C3)c12` (centres unmarked) [Compound 10.16], in the test with S. aureus ATCC 13709 (Table 18, Sa), the MIC Sa is not above 0.5 µg/mL. Further, in the test with E. coli ATCC 25922 (Table 18, Ec), the MIC Ec is not above 0.5 µg/mL.
Turning to `CNc1cc(F)c(F)c2c1[nH]c1nc(Oc3cnc([C@@H](C)O)nc3)nc(N3CC4NCC[C@@H]4C3)c12` (some centres unmarked) [Compound 10.31], the MIC Sa against S. aureus ATCC 13709 (Table 18, Sa) was not above 0.5 µg/mL. In the test with E. coli ATCC 25922 (Table 18, Ec), this compound came in with an MIC Ec not above 0.5 µg/mL.
Consider `CNc1cc(F)cc2c1[nH]c1nc(Oc3cnc(C)nc3)nc(N3C[C@H]4C[C@@H]3C[C@H]4NCCO)c12` [Compound 10.114], for which the MIC Sa in the test with S. aureus ATCC 13709 (Table 18, Sa) was not above 0.5 µg/mL. The compound also showed an MIC Ec with E. coli ATCC 25922 (Table 18, Ec) not above 0.5 µg/mL.
In turn, `CNc1cc(F)cc2c1[nH]c1nc(Oc3cnc(C(C)O)nc3)nc(N3CC4CC(C3)C4N)c12` (centres unmarked) [Compound 10.82] gave an MIC Sa against S. aureus ATCC 13709 (Table 18, Sa) of 0.13 µg/mL (≈ 0.28 µM). Besides, the MIC Ec in the test on E. coli ATCC 25922 (Table 18, Ec) was 0.5 µg/mL (≈ 1.08 µM).
On to `CNc1cc(F)cc2c1[nH]c1nc(NCc3cccnc3)nc(N3C[C@H]4C[C@@H]3C[C@H]4N)c12` [Compound 10.51], for which, in the test with S. aureus ATCC 13709 (Table 18, Sa), the MIC Sa turned out to be 4 µg/mL (≈ 9.25 µM). In addition, the MIC Ec in the test with E. coli ATCC 25922 (Table 18, Ec) amounted to 16 µg/mL (≈ 37 µM).
Turning to `CNc1cc(F)cc2c1[nH]c1nc(Oc3cnc(SC)nc3)nc(N3CC4CC(N)C4C3)c12` (centres unmarked) [Compound 4.196], in the test on S. aureus ATCC 13709 (setting [6]), the “MIC Sa” value was not above 0.5 µg/mL. Further, the “MIC Ec” value against E. coli ATCC 25922 (setting [7]) is not above 0.5 µg/mL.
For the compound `CNc1cccc2c1[nH]c1nc(Sc3cncc(S(=O)(=O)NC)c3)nc(N3CC4C(N)C4C3)c12` (centres unmarked) [Compound 1.36], the MIC in the test with S. aureus ATCC 13709 (setting [2]) is 2 µg/mL (≈ 4.03 µM); in the test with E. coli ATCC 25922 (setting [4]), 4 µg/mL (≈ 8.05 µM).
Turning to `CNc1cc(F)cc2c1[nH]c1nc(Oc3cncc(-c4nnn(C)n4)c3)nc(N3CC4C(N)C4C3)c12` (centres unmarked) [Compound 4.210], the “MIC Sa” value against S. aureus ATCC 13709 (setting [6]) was not above 0.5 µg/mL. The “MIC Ec” value against E. coli ATCC 25922 (setting [7]) was determined as 1 µg/mL (≈ 2.05 µM).
